{"source": "patent US12667100B2", "about": "“Composition comprising benzylamine acaricide and use thereof” (SHANDONG KANGQIAO BIO-TECHNOLOGY CO., LTD, priority 2021, dated 2026)", "tested_on": "Tetranychus cinnabarinus Boi, adult mite", "test": "whole plant or invertebrate", "type": "in vivo", "method": "Test subject: Tetranychus cinnabarinus Boi, adult mite, indoor rearing sensitive strain.\nTest condition: 25° C. constant temperature incubator, 60% relative humidity, light L:D=14:10\nTest solution formulation: according to the test needs, accurately weigh the test sample more than 50 mg by using an electronic analytical balance, mixed with acetone to the required concentration, according to calculation, the sample of acetone solution added to a volumetric flask, diluted by aqueous solution with 0.1 wt % Tween 80 to obtain the required concentration of the solution.\nTest method: One true leaf was removed after cutting the seedlings of beans, and one true leaf was added to the hydroponic glass jar after leaving the leaf to access about 50-150 adult Tetranychus cinnabarinus Boi of the same size, and the mite base was counted the next day. The Airbrush method was used to treat the test material with medicinal spray, 1.5 mL of medicinal spray was sprayed for each treatment, and a blank control was set for three treatments.\nAfter spraying and drying naturally, the treated test material was placed in a constant temperature observation room. 72 hours later, the number of live mites was investigated and the mortality rate was calculated. The Bliss method was used for evaluation, and the theoretical mortality rate could be calculated by the following formula: P=Pm+Pn(1−Pm)\nPm is the mortality rate (%) of the target at a concentration of m for the first active component (active component a); Pn is the mortality rate (%) of the target at a concentration of n for the second active component (active component b).", "key": {"[1]": {"conditions": "Tetranychus cinnabarinus, 72 h, single agent 0.01 mg/L, adult mites, 72 h after spraying, read-out: 72 h mortality rate"}, "[2]": {"conditions": "Tetranychus cinnabarinus, 72 h, single agent 0.04 mg/L, adult mites, 72 h after spraying, read-out: 72 h mortality rate"}, "[3]": {"conditions": "Tetranychus cinnabarinus, 72 h, single agent 0.2 mg/L, adult mites, 72 h after spraying, read-out: 72 h mortality rate"}, "[4]": {"conditions": "Tetranychus cinnabarinus, 72 h, single agent 0.4 mg/L, adult mites, 72 h after spraying, read-out: 72 h mortality rate"}, "[5]": {"conditions": "Tetranychus cinnabarinus, 72 h, single agent 0.8 mg/L, adult mites, 72 h after spraying, read-out: 72 h mortality rate"}, "[6]": {"conditions": "single agent 0.2 mg/L, adult mites, 72 h after spraying"}, "[7]": {"conditions": "single agent 0.4 mg/L, adult mites, 72 h after spraying"}, "[8]": {"conditions": "single agent 0.8 mg/L, adult mites, 72 h after spraying"}, "[9]": {"conditions": "Tetranychus cinnabarinus, 72 h, read-out: 72 h mortality rate"}, "[10]": {"conditions": "single agent 0.01 mg/L, adult mites, 72 h after spraying"}, "[11]": {"conditions": "single agent 0.04 mg/L, adult mites, 72 h after spraying"}, "[12]": {"conditions": "single agent 1 mg/L, adult mites, 72 h after spraying"}, "[13]": {"conditions": "single agent 5 mg/L, adult mites, 72 h after spraying"}}, "note": "Several values for one entry are separate records, joined by “and”; a condition that tells them apart may be missing. Identical values can stand only once. Like-named read-outs stand apart in the source and are kept apart here."}
{"smiles": "COC(=O)c1ccccc1CNc1cc(SCC(F)(F)F)c(C)cc1F", "note": "[Compound A1]", "values": [{"measurement": "mortality at 0.01 µg/mL", "setting": "[1]", "result": 0, "unit": "%"}, {"measurement": "mortality at 0.04 µg/mL", "setting": "[2]", "result": 0, "unit": "%"}, {"measurement": "mortality at 0.2 µg/mL", "setting": "[3]", "result": 27.9, "unit": "%"}, {"measurement": "mortality at 0.4 µg/mL", "setting": "[4]", "result": 40.1, "unit": "%"}, {"measurement": "mortality at 0.8 µg/mL", "setting": "[5]", "result": 74.6, "unit": "%"}, {"measurement": "72 h mortality rate", "setting": "[6]", "result": "22.2% and 28.1% and 26.8% and 19.8%"}, {"measurement": "72 h mortality rate", "setting": "[7]", "result": "40.4% and 43.3% and 41.7% and 42.3%"}, {"measurement": "72 h mortality rate", "setting": "[8]", "result": "74.3% and 72.6% and 72.7% and 74.1%"}]}
{"smiles": "COC(=O)c1ccccc1CNc1cc(SCC(F)(F)F)c(Cl)cc1F", "note": "[Compound A9]", "values": [{"measurement": "mortality at 0.01 µg/mL", "setting": "[1]", "result": 0, "unit": "%"}, {"measurement": "mortality at 0.04 µg/mL", "setting": "[2]", "result": 0, "unit": "%"}, {"measurement": "mortality at 0.2 µg/mL", "setting": "[3]", "result": 19.8, "unit": "%"}, {"measurement": "mortality at 0.4 µg/mL", "setting": "[4]", "result": 42.2, "unit": "%"}, {"measurement": "mortality at 0.8 µg/mL", "setting": "[5]", "result": 62.3, "unit": "%"}, {"measurement": "72 h mortality rate", "setting": "[6]", "result": "18.5% and 27.5% and 22.1% and 22.4%"}, {"measurement": "72 h mortality rate", "setting": "[7]", "result": "41.9% and 36.0% and 40.8% and 34.5%"}, {"measurement": "72 h mortality rate", "setting": "[8]", "result": "64.1% and 67.1% and 64.6% and 65.8%"}]}
{"smiles": "CC[C@H](C)[C@H]1O[C@]2(C=C[C@@H]1C)C[C@@H]1C[C@@H](C/C=C(\\C)[C@@H](O[C@H]3C[C@H](OC)[C@@H](O[C@H]4C[C@H](OC)[C@@H](O)[C@H](C)O4)[C@H](C)O3)[C@@H](C)/C=C/C=C3\\CO[C@@H]4[C@H](O)C(C)=C[C@@H](C(=O)O1)[C@]34O)O2", "note": "[avermectin]", "values": [{"measurement": "mortality at 0.0005 µg/mL", "setting": "[9]", "result": 0, "unit": "%"}, {"measurement": "mortality at 0.0025 µg/mL", "setting": "[9]", "result": 14.8, "unit": "%"}, {"measurement": "mortality at 0.01 µg/mL", "setting": "[9]", "result": 37.3, "unit": "%"}, {"measurement": "mortality at 0.02 µg/mL", "setting": "[9]", "result": 70, "unit": "%"}]}
{"smiles": "Clc1ccccc1-c1nnc(-c2ccccc2Cl)nn1", "note": "[clofentezine]", "values": [{"measurement": "mortality at 0.04 µg/mL", "setting": "[9]", "result": 0, "unit": "%"}, {"measurement": "mortality at 0.2 µg/mL", "setting": "[9]", "result": 0, "unit": "%"}, {"measurement": "mortality at 1 µg/mL", "setting": "[9]", "result": 9.1, "unit": "%"}, {"measurement": "mortality at 8 µg/mL", "setting": "[9]", "result": 18.2, "unit": "%"}, {"measurement": "mortality at 40 µg/mL", "setting": "[9]", "result": 41.3, "unit": "%"}]}
{"smiles": "CCn1nc(C)cc1/C(OC(=O)C(C)(C)C)=C(/C#N)c1ccc(C(C)(C)C)cc1", "note": "[cyetpyrafen]", "values": [{"measurement": "72 h mortality rate", "setting": "[10]", "result": 0, "unit": "%"}, {"measurement": "72 h mortality rate", "setting": "single agent 0.05 mg/L, adult mites, 72 h after spraying", "result": 2.8, "unit": "%"}, {"measurement": "72 h mortality rate", "setting": "single agent 0.1 mg/L, adult mites, 72 h after spraying", "result": 17.0, "unit": "%"}, {"measurement": "72 h mortality rate", "setting": "[6]", "result": 37.9, "unit": "%"}, {"measurement": "72 h mortality rate", "setting": "single agent 0.5 mg/L, adult mites, 72 h after spraying", "result": 75.5, "unit": "%"}]}
{"smiles": "CCOc1cc(C(C)(C)C)ccc1C1COC(c2c(F)cccc2F)=N1", "note": "(stereo not drawn) [etoxazole]", "values": [{"measurement": "mortality at 0.01 µg/mL", "setting": "[9]", "result": 0, "unit": "%"}, {"measurement": "mortality at 0.04 µg/mL", "setting": "[9]", "result": 0, "unit": "%"}, {"measurement": "mortality at 0.2 µg/mL", "setting": "[9]", "result": 9.3, "unit": "%"}, {"measurement": "mortality at 0.4 µg/mL", "setting": "[9]", "result": 21.4, "unit": "%"}, {"measurement": "mortality at 1 µg/mL", "setting": "[9]", "result": 26.6, "unit": "%"}, {"measurement": "mortality at 5 µg/mL", "setting": "[9]", "result": 43.6, "unit": "%"}]}
{"smiles": "C[C@@H]1[C@@H](c2ccc(Cl)cc2)SC(=O)N1C(=O)NC1CCCCC1", "note": "[hexythiazox]", "values": [{"measurement": "mortality at 0.04 µg/mL", "setting": "[9]", "result": 0, "unit": "%"}, {"measurement": "mortality at 0.2 µg/mL", "setting": "[9]", "result": 12.8, "unit": "%"}, {"measurement": "mortality at 1 µg/mL", "setting": "[9]", "result": 21.3, "unit": "%"}, {"measurement": "mortality at 8 µg/mL", "setting": "[9]", "result": 36.3, "unit": "%"}, {"measurement": "mortality at 40 µg/mL", "setting": "[9]", "result": 69.5, "unit": "%"}]}
{"smiles": "C#CCOS(=O)OC1CCCCC1Oc1ccc(C(C)(C)C)cc1", "note": "(stereo not drawn) [propargite]", "values": [{"measurement": "mortality at 0.1 µg/mL", "setting": "[9]", "result": 0, "unit": "%"}, {"measurement": "mortality at 0.4 µg/mL", "setting": "[9]", "result": 0, "unit": "%"}, {"measurement": "mortality at 4 µg/mL", "setting": "[9]", "result": 3.9, "unit": "%"}, {"measurement": "mortality at 25 µg/mL", "setting": "[9]", "result": 34.1, "unit": "%"}]}
{"smiles": "CCC(C)(C)C(=O)OC1=C(c2ccc(Cl)cc2Cl)C(=O)OC12CCCCC2", "note": "[spirodiclofen]", "values": [{"measurement": "72 h mortality rate", "setting": "[10]", "result": 0, "unit": "%"}, {"measurement": "72 h mortality rate", "setting": "[11]", "result": 0, "unit": "%"}, {"measurement": "72 h mortality rate", "setting": "[6]", "result": 0, "unit": "%"}, {"measurement": "72 h mortality rate", "setting": "[7]", "result": 9.4, "unit": "%"}, {"measurement": "72 h mortality rate", "setting": "[12]", "result": 24.2, "unit": "%"}, {"measurement": "72 h mortality rate", "setting": "[13]", "result": 56.9, "unit": "%"}]}
{"smiles": "Cc1cc(C)c(C2=C(OC(=O)CC(C)(C)C)C3(CCCC3)OC2=O)c(C)c1", "note": "[spiromesifen]", "values": [{"measurement": "72 h mortality rate", "setting": "[10]", "result": 0, "unit": "%"}, {"measurement": "72 h mortality rate", "setting": "[11]", "result": 0, "unit": "%"}, {"measurement": "72 h mortality rate", "setting": "[6]", "result": 0, "unit": "%"}, {"measurement": "72 h mortality rate", "setting": "[7]", "result": 14.1, "unit": "%"}, {"measurement": "72 h mortality rate", "setting": "[12]", "result": 30.4, "unit": "%"}, {"measurement": "72 h mortality rate", "setting": "[13]", "result": 64.9, "unit": "%"}]}
